{"source": "patent US20070025991A1", "about": "“Use of antagonists of ghrelin or ghrelin receptor to treat intestinal inflammation” (priority 2003, published 2007)", "key": {"[1]": {"test_system": "IL-8 promoter activity in NCM460 cells expressing human GHS-R", "test": "IL-8 promoter-luciferase assay in GHS-R-expressing NCM460 cells", "type": "cell-based", "experimental": "Construction of a reporter construct containing 1521 bp (nucleotides −1481 to +40) of the promoter region of human IL-8 gene has been described previously (Warny, M. et al., J. Clin. Invest., 105:1147-1156 (2000)). IL-8 reporter constructs containing mutations in NF-κB, AP-1 or C/EBP sites have been described previously (Zhao, D. et al., J. Biol. Chem., 276:44464-44471 (2001)). […] Firefly and Renilla luciferase activities in cell extracts were measured using Dual-Luciferase Reporter Assay System (Promega). The relative luciferase activity were then calculated by normalizing IL-8 promoter-driven Firefly luciferase activity to control Renilla luciferase activity. […]\nNCM460 cells were transiently transfected with pMMP-HA-GHSR or a control plasmid pMMP-LacZ along with IL-8 promoter-luciferase construct plus an internal control construct. The transfected cells were stimulated with ghrelin for 6 hours and the IL-8 promoter activity was measured.\nTo examine whether ghrelin-induced IL-8 gene expression involves the NF-κB pathway, NCM-GHS-R cells were transiently transfected with IL-8-luciferase construct along with an internal control plasmid. […] IL-8 promoter activity was measured. […]"}, "food intake": {"test_system": "food intake", "settings": "food intake induced by centrally injected ghrelin / GHS-R-induced; cited from earlier work"}, "[2]": {"test_system": "ghrelin-induced MAP kinase phosphorylation in IEC-GHS-R cells (rat GHS-R)", "test": "MAP kinase phosphorylation in IEC-GHS-R cells (western blot, phospho-MAPK antibody)", "type": "cell-based", "experimental": "To examine whether an anti-ghrelin IgG or a GHS-R antagonist [D-lys-3]-GHRP-6 blocks ghrelin-mediated responses in experimental colitis, experiments were first performed to test the efficiency of these reagents using in vitro assays. Since ghrelin was previously shown to activate MAP kinase in human HepG2 cells, the effect of the anti-ghrelin antibody or [D-lys-3]-GHRP-6 on ghrelin-induced MAP kinase activation was determined. For these experiments, rat full-length GHS-R cDNA was cloned from rat brain RNA and then subcloned into the retroviral expression vector pMMP. The retroviruses expressing rat GHS-R were used to infect normal rat intestinal epithelial cell line IEC-6 cells (from ATCC). The resulting cell line was named IEC-GHS-R cells.\nThe response of the IEC-GHS-R to rat ghrelin was determined using this MAP kinase assay. Briefly, serum starved IEC-GHS-R cells were treated with ghrelin (10^−7 M) for various times. […]\nTo determine the effect of an anti-ghrelin IgG or a GHS-R antagonist [D-lys-3]-GHRP on ghrelin-induced MAPK phosphorylation, IEC-GHS-R cells were pretreated with the anti-ghrelin IgG (2 and 5 μg/ml) or with normal rabbit IgG or [D-lys-3]-GHRP-6 (1-20 nM) for 10 minutes and then treated with rat ghrelin for 5 minutes. MAP kinase phosphorylation was then determined."}, "GHS-R": {"target": "T1, GHS-R (Rattus norvegicus, UniProt O08725)", "T1 construct": "host or cells: CHO cells stably expressing rat GHS-R (inferred, same citation)", "T1 sequence (O08725 whole entry)": "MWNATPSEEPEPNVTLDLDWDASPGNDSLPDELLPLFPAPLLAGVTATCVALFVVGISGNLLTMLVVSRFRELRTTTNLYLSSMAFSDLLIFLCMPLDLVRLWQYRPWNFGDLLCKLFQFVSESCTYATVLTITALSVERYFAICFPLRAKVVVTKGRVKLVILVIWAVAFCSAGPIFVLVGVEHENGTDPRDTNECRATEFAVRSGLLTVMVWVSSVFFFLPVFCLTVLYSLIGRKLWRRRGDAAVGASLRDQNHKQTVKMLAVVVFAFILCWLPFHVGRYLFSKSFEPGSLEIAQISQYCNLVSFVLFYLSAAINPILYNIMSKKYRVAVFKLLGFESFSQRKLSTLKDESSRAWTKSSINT", "settings": "cited from earlier work"}, "[3]": {"test_system": "toxin A-induced intestinal fluid secretion", "design": "species or system mice", "settings": "mouse, in vivo, ip"}, "[4]": {"test_system": "IL-8 secretion in NCM-GHS-R cells", "test": "IL-8 secretion (ELISA) in NCM-GHS-R cells", "type": "cell-based, human", "settings": "serum starved NCM-GHS-R cells, ghrelin 10^−7 M, various times"}, "[5]": {"test_system": "NCM460, HT29 and Caco-2 cells", "test": "IL-8 gene expression in colonic epithelial cell lines with endogenous ghrelin receptor", "type": "cell-based, human", "settings": "NCM460, HT29, Caco-2 with very low endogenous ghrelin receptor"}, "[6]": {"target": "human GHS-R with HA epitope (pMMP-HA-GHSR), transiently expressed in NCM460 cells (human) (UniProt Q92847)", "sequence (Q92847 whole entry)": "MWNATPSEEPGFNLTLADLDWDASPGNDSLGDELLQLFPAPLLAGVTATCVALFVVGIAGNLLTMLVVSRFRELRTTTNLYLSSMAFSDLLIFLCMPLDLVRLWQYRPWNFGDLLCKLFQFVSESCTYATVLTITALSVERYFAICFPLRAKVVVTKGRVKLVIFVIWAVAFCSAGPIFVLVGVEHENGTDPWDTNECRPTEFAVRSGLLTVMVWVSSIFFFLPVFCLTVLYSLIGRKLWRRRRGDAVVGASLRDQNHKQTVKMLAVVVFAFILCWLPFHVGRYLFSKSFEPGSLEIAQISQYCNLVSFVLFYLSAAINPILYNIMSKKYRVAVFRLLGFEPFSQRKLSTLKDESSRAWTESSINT", "test": "cell-based or functional assay"}}, "note": "Non-standard residues stand in square brackets, D forms with d. No end group written: not given here.", "data": [{"compound": "O=C(/C=C/c1ccc(O)c(O)c1)OCCc1ccccc1", "note": "[CAPE]", "values": [{"measurement": "inhibition of ghrelin-induced IL-8 promoter activity", "setting": "[1]; NCM-GHS-R cells, 10 μg/ml CAPE 30 minutes pretreatment, ghrelin 10^−7 M 4 hours", "result": "inhibited ghrelin-induced IL-8 promoter activity"}]}, {"compound": "His-D-Trp-D-Lys-Trp-D-Phe-Lys-NH2 (H[dW][dK]W[dF]K-NH2; N-terminus assumed; SMILES NCCCC[C@H](NC(=O)[C@@H](Cc1ccccc1)NC(=O)[C@H](Cc1c[nH]c2ccccc12)NC(=O)[C@@H](CCCCN)NC(=O)[C@@H](Cc1c[nH]c2ccccc12)NC(=O)[C@@H](N)Cc1c[nH]cn1)C(N)=O) [[D-lys-3]-GHRP-6, commercially available hexapeptide ghrelin receptor (GHS-R) antagonist]", "values": [{"measurement": "block of food intake", "setting": "food intake", "result": "efficiently block"}, {"measurement": "inhibition of ghrelin-induced MAPK phosphorylation", "setting": "[2]; pretreated 10 minutes (anti-ghrelin IgG 2 and 5 μg/ml; [D-lys-3]-GHRP-6 1-20 nM), then rat ghrelin 5 minutes", "result": "inhibited ghrelin-induced MAPK phosphorylation in a dose-dependent manner"}, {"measurement": "block of GHS-R-induced calcium response", "setting": "GHS-R", "result": "efficiently block"}, {"measurement": "basal fluid secretion in buffer-exposed loops", "setting": "[3]", "result": "no significant effect"}, {"measurement": "inhibition of toxin A-induced fluid secretion", "setting": "[3]", "result": "approximately 50%"}]}, {"compound": "ghrelin", "values": [{"measurement": "MAP kinase phosphorylation", "setting": "[2]; serum starved IEC-GHS-R cells, ghrelin 10^−7 M, various times", "result": "induces MAP kinase phosphorylation in a time-dependent manner"}, {"measurement": "IL-8 secretion in conditioned media", "setting": "[4]", "result": "significantly stimulates IL-8 secretion"}, {"measurement": "stimulation of IL-8 promoter activity", "setting": "[1]; NCM460 cells transiently transfected with pMMP-HA-GHSR, ghrelin for 6 hours", "result": "approximately 8 fold"}, {"measurement": "IL-8 gene expression on stimulation", "setting": "[5]", "result": "does not mediate IL-8 gene expression"}]}, {"compound": "ghrelin (species not stated, used on human NCM460-derived cells) (peptide)", "values": [{"measurement": "IL-8 promoter activity (luciferase reporter)", "setting": "[6]", "result": 8, "unit": "fold"}]}]}
